Laboratory results as given in patent US5602100A, “Dermorphin analogs having pharmacological activity” (priority 1988, dated 1997).
Like-named read-outs stand apart in the source and are kept apart here. Non-standard residues stand in square brackets, D forms with d. Residues, ends and D or L forms follow the SMILES beside them. dNle = CCCC[C@@H](N)C(=O)O; dNva = CCC[C@@H](N)C(=O)O; Orn = NCCC[C@H](N)C(=O)O; Dab = NCC[C@H](N)C(=O)O

Legend:
guinea pig ileum (GPI) [1] = experiment: Ke values for naloxone as antagonist in the GPI assay; type: cell-based; conditions: mean of three determinations ± SEM
Experimental: κ-receptor interactions were determined by measuring Ke values for naloxone as an antagonist in the GPI assay. High Ke values (in the range of 20-30 nM) are associated with κ-receptor interactions. Low Ke values (in the range of 1-2 nM) are associated with μ-receptor interactions. Ke values for naloxone were determined from the ratio of IC50 values obtained in the presence of and in the absence of a fixed naloxone concentration. The IC50 values of the tested compounds were normalized according to published procedure (F. M. Leslie, "Methods Used for the Study of Opioid Receptors", Pharmacological Reviews, 39 (1987)).

[2] = Respiration rate (respiratory depression); type: in vivo, rat; conditions: control 142 ± 5
Experimental: In addition to the mouse writhing data, respiratory depression was measured in certain treated mice. Respiratory depression is a commonly observed side effect characteristic of centrally-acting opiates. These reulsts are expressed in Table 5.

hot plate stimulus = experiment: Mouse hot plate test; type: in vivo; conditions: for Hot plate ED50: mouse, in vivo; for ratio of ED50 for PBQ assay over ED50 for the hot plate assay: peripheral/central activity ratio
Experimental: The mouse hot plate test is an assay which only detects centrally-mediated analgesic effects. This test was carried out using the protocol described in G. Woolfe and A. MacDonald, J. Pharmacol. Exp. Ther., 80, p. 300 ([…]).
Since most of the peptides of the invention were not potent centrally, it was impossible to determine an ED50 value. […] A result is considered insignificant if 30% of mice or lower have responded.

PBQ-induced writhing [3] = experiment: Mouse writhing test (PBQ); type: in vivo; conditions: for PBQ (20 min.) ED50: dose reducing the number of writhes by 50%
Experimental: The mouse writhing test detects both peripherally and centrally mediated analgesic effects. The test procedure is described in Siegmund et al., Proc. Soc. Exp. Biol. Med., 95, p. 729 (1957). In this test, a control group of albino mice was injected intraperitoneally with 0.3 ml/20 g body weight of a 0.02% solution of 2-phenyl-1,4-benzoquinone (PBQ). The writhing and contortional movements of the mice over the following 15 minutes were recorded. A second group of mice was given a dose of a synthetic dermorphin analog according to this invention, then allowed to wait a period of time before being administered the PBQ injection. The average number of writhes was then recorded and compared to the control group. The results of this test are expressed as the dosage of peptide that reduces the number of writhes by 50% at a given time interval (referred to as ED50).

δ-opioid receptor = target: T1, δ-opioid receptor (Rattus norvegicus, UniProt P33533); experiment: biochemical; type: binding
T1 construct: displacement of the radioligands from the rat brain membrane preparations; from tissue; host or cells: rat brain membrane preparations
T1 sequence (P33533 whole entry): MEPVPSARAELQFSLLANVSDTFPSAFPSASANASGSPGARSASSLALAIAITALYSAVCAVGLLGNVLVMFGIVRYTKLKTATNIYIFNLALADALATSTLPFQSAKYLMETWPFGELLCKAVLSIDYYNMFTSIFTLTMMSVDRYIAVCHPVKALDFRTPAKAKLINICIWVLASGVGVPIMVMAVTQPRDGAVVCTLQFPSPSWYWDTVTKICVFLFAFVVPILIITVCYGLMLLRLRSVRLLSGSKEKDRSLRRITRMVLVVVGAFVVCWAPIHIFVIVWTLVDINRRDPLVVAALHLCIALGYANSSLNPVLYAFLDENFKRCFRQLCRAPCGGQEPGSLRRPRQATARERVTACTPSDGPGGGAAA

mouse vas deferens (MVD) = type: cell-based
guinea pig ileum (GPI) [4] = type: cell-based
PBQ-induced writhing [5] = experiment: Mouse writhing test with prior N-methyllevallorphan (NML); type: in vivo; conditions: 10 mg/kg N-methyllevallorphan before peptide
Experimental: A variation of the mouse writhing experiment was also conducted to determine peripheral versus central binding preferences of certain peptides of this invention. In this experiment, 10 mg/kg of N-methyllevallorphan (NML), a known peripheral opioid antagonist, was administered to the mice before injection of the synthetic dermorphin peptide.

μ-opioid receptor = target: T2, μ-opioid receptor (Rattus norvegicus, UniProt P33535); experiment: biochemical; type: binding
T2 construct: displacement of the radioligands from the rat brain membrane preparations; from tissue; host or cells: rat brain membrane preparations
T2 sequence (P33535 whole entry): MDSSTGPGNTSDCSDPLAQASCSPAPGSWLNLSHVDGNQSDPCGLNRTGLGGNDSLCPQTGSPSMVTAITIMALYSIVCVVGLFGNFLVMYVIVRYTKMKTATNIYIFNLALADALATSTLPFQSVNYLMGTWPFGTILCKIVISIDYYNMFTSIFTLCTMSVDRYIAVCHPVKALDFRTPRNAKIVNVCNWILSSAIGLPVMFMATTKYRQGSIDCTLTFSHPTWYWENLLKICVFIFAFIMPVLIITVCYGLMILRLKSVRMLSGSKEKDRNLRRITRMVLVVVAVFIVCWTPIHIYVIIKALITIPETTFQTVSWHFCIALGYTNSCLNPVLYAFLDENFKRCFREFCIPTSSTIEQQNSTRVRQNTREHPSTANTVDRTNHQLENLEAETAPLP

In the case of `NCCCC[C@H](NC(=O)[C@H](Cc1ccccc1)NC(=O)[C@@H](CCCN=C(N)N)NC(=O)[C@@H](N)Cc1ccc(O)cc1)C(N)=O` [BCH-150, H-Tyr-D-Arg-Phe-Lys-NH2], the “Ke (naloxone)” value (guinea pig ileum (GPI) [1]) is reported as 1.17 ± 0.08 nm, the Breaths per min. ([2]; dose 30 mg/kg) is reported as 121 ± 6 breaths per min and the “Hot plate ED50” value (hot plate stimulus) is reported as 19 mg/kg. For the same molecule, the “PBQ (20 min.) ED50” value (PBQ-induced writhing [3]) was 0.65 mg/kg, the Ki (δ-opioid receptor; read-out: [3H]HSLET Ki^δ) was 19.2 µM and the IC50 (mouse vas deferens (MVD)) was 781 ± 146 nM. For the same molecule, the IC50 (guinea pig ileum (GPI) [4]) was 338 ± 41 nM and the “Antagonism of antinociceptive effect by prior NML” value (“Antagonism” below) (PBQ-induced writhing [5]) was “partially or totally antagonized”.
With `CCC[C@@H](NC(=O)[C@@H](N)Cc1ccc(O)cc1)C(=O)N[C@@H](Cc1ccccc1)C(=O)N[C@@H](CCCN)C(N)=O` [BCH-752, H-Tyr-D-Nva-Phe-Orn-NH2] (H-Y[dNva]F[Orn]-NH2) the “Ke (naloxone)” value (guinea pig ileum (GPI) [1]) was 1.55 ± 0.23 nm, the Breaths per min. ([2]; dose 30 mg/kg) was 122 ± 14 breaths per min and the “Hot plate ED50” value (hot plate stimulus) was 5.2 mg/kg. The “ratio of ED50 for PBQ assay over ED50 for the hot plate assay” value (hot plate stimulus) was 26, the “PBQ (20 min.) ED50” value (PBQ-induced writhing [3]) was 0.2 mg/kg and the Ki (δ-opioid receptor; read-out: [3H]HSLET Ki^δ) was 2.2 µM. The IC50 (mouse vas deferens (MVD)) was 271 ± 63 nM, the MVD relative potency (mouse vas deferens (MVD)) was 0.0420 ± 0.0098 and the “Ki^δ /Ki^μ” value (μ-opioid receptor) was 1880. The Ki (μ-opioid receptor; read-out: [3H]DAGO Ki^μ) was 1.17 nM, the GPI relative potency (guinea pig ileum (GPI) [4]) was 2.36 ± 0.33 and the IC50 (guinea pig ileum (GPI) [4]) was 104 ± 15 nM. The “MVD/GPI IC50 ratio” value (guinea pig ileum (GPI) [4]) was 2.61 and the “Antagonism” value (PBQ-induced writhing [5]) was “partially or totally antagonized”.
For `CCCC[C@@H](NC(=O)[C@@H](N)Cc1ccc(O)cc1)C(=O)N[C@@H](Cc1ccccc1)C(=O)N[C@@H](CCCN)C(N)=O` [BCH-1763, H-Tyr-D-Nle-Phe-Orn-NH2] (H-Y[dNle]F[Orn]-NH2), the “Ke (naloxone)” value (guinea pig ileum (GPI) [1]) was 1.01 ± 0.18 nm, the Breaths per min. ([2]; dose 30 mg/kg) was 162 ± 10 breaths per min and the “% of animals showing a 50% increase” value (hot plate stimulus; dose 40 mg/kg, time 120 min.) was 90%. The “PBQ (20 min.) ED50” value (PBQ-induced writhing [3]) was 0.3 mg/kg, the Ki (δ-opioid receptor; read-out: [3H]HSLET Ki^δ) was 2.87 µM and the IC50 (mouse vas deferens (MVD)) was 2290 ± 270 nM. For the same molecule, the MVD relative potency (mouse vas deferens (MVD)) was 0.00498 ± 0.00058, the “Ki^δ /Ki^μ” value (μ-opioid receptor) was 2130 and the Ki (μ-opioid receptor; read-out: [3H]DAGO Ki^μ) was 1.35 nM. For the same molecule, the GPI relative potency (guinea pig ileum (GPI) [4]) was 1.46 ± 0.29, the IC50 (guinea pig ileum (GPI) [4]) was 168 ± 33 nM and the “MVD/GPI IC50 ratio” value (guinea pig ileum (GPI) [4]) was 13.6.
In the case of `N=C(N)NCCC[C@@H](NC(=O)[C@@H](N)Cc1ccc(O)cc1)C(=O)N[C@@H](Cc1ccccc1)C(=O)N[C@@H](CCN)C(N)=O` [BCH-1764, H-Tyr-D-Arg-Phe-A2 bu-NH2] (H-Y[dR]F[Dab]-NH2), the “Ke (naloxone)” value (guinea pig ileum (GPI) [1]) is reported as 1.32 ± 0.05 nm, the “% of animals showing a 50% increase” value (hot plate stimulus; dose 40 mg/kg, time 60 min.) is reported as 100% and the “PBQ (20 min.) ED50” value (PBQ-induced writhing [3]) is reported as 0.13 mg/kg. It also gave a Ki (δ-opioid receptor) of 12.6 µM, an IC50 (mouse vas deferens (MVD)) of 659 ± 123 nM and an MVD relative potency (mouse vas deferens (MVD)) of 0.0173 ± 0.0032. The Ki (μ-opioid receptor) was 5.78 nM, the “Ki^δ /Ki^μ” value (μ-opioid receptor) was 2180 and the GPI relative potency (guinea pig ileum (GPI) [4]) was 0.956 ± 0.208. For the same molecule, the IC50 (guinea pig ileum (GPI) [4]) was 257 ± 56 nM and the “MVD/GPI IC50 ratio” value (guinea pig ileum (GPI) [4]) was 2.56.
For `N=C(N)NCCC[C@@H](NC(=O)[C@@H](N)Cc1ccc(O)cc1)C(=O)N[C@@H](Cc1ccccc1)C(=O)N[C@@H](CCCN)C(N)=O` [BCH-1765, H-Tyr-D-Arg-Phe-Orn-NH2], the “Ke (naloxone)” value (guinea pig ileum (GPI) [1]) was 1.24 ± 0.12 nm, the “% of animals showing a 50% increase” value (hot plate stimulus; dose 40 mg/kg, time 120 min.) was 100% and the “PBQ (20 min.) ED50” value (PBQ-induced writhing [3]) was < 1 mg/kg. For the same molecule, the Ki (δ-opioid receptor; read-out: [3H]HSLET Ki^δ) was 9.29 µM, the IC50 (mouse vas deferens (MVD)) was 1090 ± 279 nM and the MVD relative potency (mouse vas deferens (MVD)) was 0.0105 ± 0.0027. For the same molecule, the “Ki^δ /Ki^μ” value (μ-opioid receptor) was 7740, the Ki (μ-opioid receptor; read-out: [3H]DAGO Ki^μ) was 1.2 nM and the GPI relative potency (guinea pig ileum (GPI) [4]) was 0.712 ± 0.249. For the same molecule, the IC50 (guinea pig ileum (GPI) [4]) was 346 ± 121 nM and the “MVD/GPI IC50 ratio” value (guinea pig ileum (GPI) [4]) was 3.15.
With `C[C@@H](NC(=O)[C@@H](N)Cc1ccc(O)cc1)C(=O)N[C@@H](Cc1ccccc1)C(=O)N[C@@H](CCCCN)C(N)=O` [BCH-1789, H-Tyr-D-Ala-Phe-Lys-NH2] (H-Y[dA]FK-NH2) the Breaths per min. ([2]; dose 30 mg/kg) was 182 ± 24 breaths per min, the “% of animals showing a 50% increase” value (hot plate stimulus; dose 40 mg/kg, time 120 min.) was 40% and the “% of animals showing a 50% increase” value (hot plate stimulus; dose 100 mg/kg, time 60 min.) was 80%. The “PBQ (20 min.) ED50” value (PBQ-induced writhing [3]) was 0.6 mg/kg, the Ki (δ-opioid receptor) was 4.43 µM and the Ki (μ-opioid receptor) was 33.3 nM. The “Ki^δ /Ki^μ” value (μ-opioid receptor) was 133.
With `CCC[C@@H](NC(=O)[C@@H](N)Cc1ccc(O)cc1)C(=O)N[C@@H](Cc1ccccc1)C(=O)N[C@@H](CCCCN)C(N)=O` [BCH-2200, H-Tyr-D-Nva-Phe-Lys-NH2] (H-Y[dNva]FK-NH2) the “PBQ (20 min.) ED50” value (PBQ-induced writhing [3]) was 0.3 mg/kg, the Ki (δ-opioid receptor) was > 2.53 µM and the Ki (μ-opioid receptor) was 2.27 nM. The “Ki^δ /Ki^μ” value (μ-opioid receptor) was > 1110 and the “Antagonism” value (PBQ-induced writhing [5]) was “partially or totally antagonized”.
In the case of `CCCC[C@@H](NC(=O)[C@@H](N)Cc1ccc(O)cc1)C(=O)N[C@@H](Cc1ccccc1)C(=O)N[C@@H](CCCCN)C(N)=O` [BCH-2205, H-Tyr-D-Nle-Phe-Lys-NH2] (H-Y[dNle]FK-NH2), the Breaths per min. ([2]; dose 30 mg/kg) is reported as 158 ± 7 breaths per min, the Breaths per min. ([2]; dose 100 mg/kg) is reported as 150 ± 4 breaths per min and the “% of animals showing a 50% increase” value (hot plate stimulus; dose 40 mg/kg, time 30 min.) is reported as 60%. The “% of animals showing a 50% increase” value (hot plate stimulus; dose 100 mg/kg, time 60 min.) was 60%, the “PBQ (20 min.) ED50” value (PBQ-induced writhing [3]) was 1.8 mg/kg and the Ki (δ-opioid receptor) was 3.8 µM. For the same molecule, the Ki (μ-opioid receptor) was 12.4 nM and the “Ki^δ /Ki^μ” value (μ-opioid receptor) was 306.
With `CC(C)[C@@H](NC(=O)[C@@H](N)Cc1ccc(O)cc1)C(=O)N[C@@H](Cc1ccccc1)C(=O)N[C@@H](CCCCN)C(N)=O` [BCH-2206, H-Tyr-D-Val-Phe-Lys-NH2] (H-Y[dV]FK-NH2) the Breaths per min. ([2]; dose 30 mg/kg) was 168 ± 13 breaths per min, the “% of animals showing a 50% increase” value (hot plate stimulus; dose 40 mg/kg, time 120 min.) was 30% and the “% of animals showing a 50% increase” value (hot plate stimulus; dose 100 mg/kg, time 120 min.) was 90%. For the same molecule, the “PBQ (20 min.) ED50” value (PBQ-induced writhing [3]) was 4.8 mg/kg, the Ki (δ-opioid receptor) was > 2.53 µM and the Ki (μ-opioid receptor) was 6.58 nM. For the same molecule, the “Ki^δ /Ki^μ” value (μ-opioid receptor) was > 384.
For `CC(C)C[C@H](NC(=O)[C@H](Cc1ccccc1)NC(=O)CNC(=O)CNC(=O)[C@@H](N)Cc1ccc(O)cc1)C(=O)O` [Leu-enkephalin, [Leu^5]enkephalin, reference compound], the “Ke (naloxone)” value (guinea pig ileum (GPI) [1]) was 1.53 ± 0.43 nm.
For `CN1CC[C@]23c4c5ccc(O)c4O[C@H]2[C@@H](O)C=C[C@H]3[C@H]1C5` [morphine, reference compound], the Breaths per min. ([2]; dose 30 mg/kg) was 104 ± 6 breaths per min, the ED50 (hot plate stimulus; Mus musculus) was 2.7 mg/kg and the “ratio of ED50 for PBQ assay over ED50 for the hot plate assay” value (hot plate stimulus) was 4.5. For the same molecule, the ED50 (PBQ-induced writhing [3]; Mus musculus, 20 min, read-out: PBQ (20 min.) ED50, dose reducing the number of writhes by 50%) was 0.6 mg/kg and the “Antagonism” value (PBQ-induced writhing [5]) was “not antagonized”.
In the case of “H-Tyr-D-Ala-Gly-Phe(NMe)-Gly-ol [DAGO, reference compound]”, the “Ke (naloxone)” value (guinea pig ileum (GPI) [1]) is reported as 0.800 ± 0.100 nm, the IC50 (mouse vas deferens (MVD)) is reported as 950 ± 269 nM and the IC50 (guinea pig ileum (GPI) [4]) is reported as 28 ± 3.7 nM.
